According to patent US20240208970A1, “SUBSTITUTED HYDANTOIN COMPOUNDS, METHODS FOR PREPARATION THEREOF AND USE THEREOF IN THE TREATMENT AND/OR PREVENTION OF A CORONA VIRUS DISEASE” (priority 2021, published 2024):

Target: SARS-CoV-2 M^pro protease (Severe acute respiratory syndrome coronavirus 2 (2019-nCoV) (SARS-CoV-2), UniProt P0DTD1)
Assay: biochemical
Type: biochemical
Conditions: Table 5A; M^pro 75 nM, substrate 10 μM

`Cc1c(Br)cncc1N1C(=O)NC2(CC(C3CCC3)C2)C1=O` (stereo not shown) [Compound 6, 7-(5-bromo-4-methylpyridin-3-yl)-2-cyclobutyl-5,7-diazaspiro[3.4]octane-6,8-dione] and `Cc1c(Br)cncc1N1C(=O)NC2(CC(C(C)(C)C)C2)C1=O` (stereo not shown) [Compound 5, 7-(5-bromo-4-methylpyridin-3-yl)-2-tert-butyl-5,7-diazaspiro[3.4]octane-6,8-dione] are within 1.5-fold of each other in IC50: 2 µM for the first, 2.7 µM for the second.

`Cc1cccnc1CN1C(=O)NC2(CC(C(C)(C)C)C2)C1=O` (stereo not shown) [Compound 9, 2-tert-butyl-7-[(3-methylpyridin-2-yl)methyl]-5,7-diazaspiro[3.4]octane-6,8-dione] was tested, and the IC50 was > 10 µM.

Same assay, conditions: Tables 5B-5E; M^pro 75 nM, substrate 10 μM

First: O=C1NC2(CC(c3ccccc3Cl)C2)C(=O)N1c1cncc2nccnc12 (stereo not shown) [Compound 52, 2-(2-chlorophenyl)-7-(pyrido[3,4-b]pyrazin-8-yl)-5,7-diazaspiro[3.4]octane-6,8-dione]
Second: O=C1NC2(CC(c3ccccc3Cl)C2)C(=O)N1c1cncc2cc(F)ccc12 (stereo not shown) [Compound 55, 2-(2-chlorophenyl)-7-(7-fluoroisoquinolin-4-yl)-5,7-diazaspiro[3.4]octane-6,8-dione]
The IC50 of the first is 2.1-fold higher: 0.394 µM for the first, 0.187 µM for the second. The second is the more potent here.

`Cc1ccc2cncc(N3C(=O)NC4(CC(C5CCC5)C4)C3=O)c2c1` (stereo not shown) [Compound 58, 2-cyclobutyl-7-(6-methylisoquinolin-4-yl)-5,7-diazaspiro[3.4]octane-6,8-dione] and `COc1ccc2cncc(N3C(=O)NC4(CC(C5CCC5)C4)C3=O)c2c1` (stereo not shown) [Compound 57, 2-cyclobutyl-7-(6-methoxyisoquinolin-4-yl)-5,7-diazaspiro[3.4]octane-6,8-dione] are within 1.5-fold of each other in IC50: 0.361 µM for the first, 0.34 µM for the second.

Compared with `CN1C(=O)N(c2cncc3ccccc23)C(=O)C12CC(c1ccccc1Br)C2` (stereo not shown) [Compound 67, 2-(2-bromophenyl)-7-(isoquinolin-4-yl)-5-methyl-5,7-diazaspiro[3.4]octane-6,8-dione], `CN1C(=O)N(c2cncc3ccccc23)C(=O)C12CC(c1ccccc1Cl)C2` (stereo not shown) [Compound 68, 2-(2-chlorophenyl)-7-(isoquinolin-4-yl)-5-methyl-5,7-diazaspiro[3.4]octane-6,8-dione] is 3.2-fold higher in IC50: 0.14 µM for the first, 0.453 µM for the second.

Going from `NC(=O)CN1C(=O)N(c2cncc3ccccc23)C(=O)C12CC(C1CCC1)C2` (stereo not shown) [Compound 70, 2-(2-cyclobutyl-7-(isoquinolin-4-yl)-6,8-dioxo-5,7-diazaspiro[3.4]octan-5-yl)acetamide] to `C=CCN1C(=O)N(c2cncc3ccccc23)C(=O)C12CC(C1CCC1)C2` (stereo not shown) [Compound 74, 5-allyl-2-cyclobutyl-7-(isoquinolin-4-yl)-5,7-diazaspiro[3.4]octane-6,8-dione], the IC50 rises from 0.944 µM to 1.51 µM (1.6-fold). The first is the more potent here.

First: O=C1NC2(CC(c3ccccc3C(F)(F)F)C2)C(=O)N1c1cncc2ccccc12 (stereo not shown) [Compound 22, 7-(isoquinolin-4-yl)-2-(2-(trifluoromethyl)phenyl)-5,7-diazaspiro[3.4]octane-6,8-dione]
Second: O=C1NC2(CC(c3ccccc3Br)C2)C(=O)N1c1cncc2ccccc12 (single isomer, unassigned) [Compound 16, 2-(2-bromophenyl)-7-(isoquinolin-4-yl)-5,7-diazaspiro[3.4]octane-6,8-dione]
The IC50 of the first is 1.6-fold higher: 0.197 µM for the first, 0.127 µM for the second.

Compared with `O=C1NC2(CC(c3sccc3Cl)C2)C(=O)N1c1cncc2ccccc12` (single isomer, unassigned) [Compound 42, 2-(3-chlorothiophen-2-yl)-7-(isoquinolin-4-yl)-5,7-diazaspiro[3.4]octane-6,8-dione], `O=C1NC2(CC(c3sccc3Br)C2)C(=O)N1c1cncc2ccccc12` (single isomer, unassigned) [Compound 45, 2-(3-bromothiophen-2-yl)-7-(isoquinolin-4-yl)-5,7-diazaspiro[3.4]octane-6,8-dione] is 3.2-fold lower in IC50: 0.185 µM for the first, 0.057 µM for the second.

Going from `O=C1N(c2cncc3ccccc23)C(=O)C2(CC(C3CCC3)C2)N1Cc1ccn[nH]1` (stereo not shown) [Compound 80, 5-((1H-pyrazol-5-yl)methyl)-2-cyclobutyl-7-(isoquinolin-4-yl)-5,7-diazaspiro[3.4]octane-6,8-dione] to `O=C1N(c2cncc3ccccc23)C(=O)C2(CC(C3CCC3)C2)N1Cc1ncc[nH]1` (stereo not shown) [Compound 77, 5-((1H-imidazol-2-yl)methyl)-2-cyclobutyl-7-(isoquinolin-4-yl)-5,7-diazaspiro[3.4]octane-6,8-dione], the IC50 falls from 3.82 µM to 2.52 µM (1.5-fold).

`O=C1NC2(CC(c3c(Cl)cccc3Cl)C2)C(=O)N1c1cncc2ccccc12` (single isomer, unassigned) [Compound 29, 2-(2,6-dichlorophenyl)-7-(isoquinolin-4-yl)-5,7-diazaspiro[3.4]octane-6,8-dione] and `O=C1NC2(CC(c3c(F)cccc3Cl)C2)C(=O)N1c1cncc2ccccc12` (single isomer, unassigned) [Compound 36, 2-(2-chloro-6-fluorophenyl)-7-(isoquinolin-4-yl)-5,7-diazaspiro[3.4]octane-6,8-dione] are within 1.5-fold of each other in IC50: 0.165 µM for the first, 0.205 µM for the second.

Compared with `O=C1NC2(CC(c3cn(Cc4ccccc4)nn3)C2)C(=O)N1c1cncc2ccccc12` (stereo not shown) [Compound 47, 2-(1-benzyl-1H-1,2,3-triazol-4-yl)-7-(isoquinolin-4-yl)-5,7-diazaspiro[3.4]octane-6,8-dione], `O=C1NC2(CC(OCc3ccccc3)C2)C(=O)N1c1cncc2ccccc12` (stereo not shown) [Compound 48, 2-(benzyloxy)-7-(isoquinolin-4-yl)-5,7-diazaspiro[3.4]octane-6,8-dione] is 4.2-fold lower in IC50: 10.8 µM for the first, 2.58 µM for the second.

First: O=C1NC2(CC(c3ccc(F)cc3Cl)C2)C(=O)N1c1cncc2ccccc12 (stereo not shown) [Compound 33, 2-(2-chloro-4-fluorophenyl)-7-(isoquinolin-4-yl)-5,7-diazaspiro[3.4]octane-6,8-dione]
Second: O=C1NC2(CC(c3cccc(F)c3Cl)C2)C(=O)N1c1cncc2ccccc12 (single isomer, unassigned) [Compound 31, 2-(2-chloro-3-fluorophenyl)-7-(isoquinolin-4-yl)-5,7-diazaspiro[3.4]octane-6,8-dione]
The IC50 of the first is 1.5-fold lower: 0.099 µM for the first, 0.15 µM for the second.

Going from `CC1(c2ccc(F)cc2Cl)CC2(C1)NC(=O)N(c1cncc3ccccc13)C2=O` (single isomer, unassigned) [Compound 83, 2-(2-chloro-4-fluorophenyl)-7-(isoquinolin-4-yl)-2-methyl-5,7-diazaspiro[3.4]octane-6,8-dione] to `CC1(c2ccccc2Cl)CC2(C1)NC(=O)N(c1cncc3ccccc13)C2=O` (stereo not shown) [Compound 96, 2-(2-chlorophenyl)-7-(isoquinolin-4-yl)-2-methyl-5,7-diazaspiro[3.4]octane-6,8-dione], the IC50 rises from 0.241 µM to 0.408 µM (1.7-fold). The first is the more potent here.

Compared with `CC(=O)N1C(=O)N(c2cncc3ccccc23)C(=O)C12CC(C1CCC1)C2` (stereo not shown) [Compound 79, 5-acetyl-2-cyclobutyl-7-(isoquinolin-4-yl)-5,7-diazaspiro[3.4]octane-6,8-dione], `CN1C(=O)N(c2cncc3ccccc23)C(=O)C12CC(C1CCC1)C2` (stereo not shown) [Compound 69, 2-cyclobutyl-7-(isoquinolin-4-yl)-5-methyl-5,7-diazaspiro[3.4]octane-6,8-dione] is 5.5-fold lower in IC50: 3.08 µM for the first, 0.562 µM for the second.

`O=C1NC2(CC(c3ccccc3Cl)C2)C(=O)N1c1cccnc1` (stereo not shown) [Compound 100, 2-(2-chlorophenyl)-7-(pyridin-3-yl)-5,7-diazaspiro[3.4]octane-6,8-dione] and `O=C1NC2(CC(c3ccccc3Cl)C2)C(=O)N1c1cnccc1C(F)(F)F` (stereo not shown) [Compound 92, 2-(2-chlorophenyl)-7-(4-(trifluoromethyl)pyridin-3-yl)-5,7-diazaspiro[3.4]octane-6,8-dione] are within 1.5-fold of each other in IC50: 0.295 µM for the first, 0.309 µM for the second.

`COc1ccccc1C1CC2(C1)NC(=O)N(c1cncc3ccccc13)C2=O` (stereo not shown) [Compound 20, 7-(isoquinolin-4-yl)-2-(2-methoxyphenyl)-5,7-diazaspiro[3.4]octane-6,8-dione] and `O=C1NC2(CC(c3cccc(F)c3Cl)C2)C(=O)N1c1cncc2ccccc12` (single isomer, unassigned) [Compound 30, 2-(2-chloro-3-fluorophenyl)-7-(isoquinolin-4-yl)-5,7-diazaspiro[3.4]octane-6,8-dione] are within 1.5-fold of each other in IC50: 0.477 µM for the first, 0.372 µM for the second.

Compared with `O=C(CN1C(=O)N(c2cncc3ccccc23)C(=O)C12CC(C1CCC1)C2)c1ccccn1` (stereo not shown) [Compound 73, 2-cyclobutyl-7-(isoquinolin-4-yl)-5-(2-oxo-2-(pyridin-2-yl)ethyl)-5,7-diazaspiro[3.4]octane-6,8-dione], `O=C1NC2(CC(c3ccc(F)cc3)C2)C(=O)N1c1cncc2ccccc12` (stereo not shown) [Compound 27, 2-(4-fluorophenyl)-7-(isoquinolin-4-yl)-5,7-diazaspiro[3.4]octane-6,8-dione] is 3.3-fold lower in IC50: 1.44 µM for the first, 0.441 µM for the second.

`COc1ccnc(F)c1N1C(=O)NC2(CC(c3ccccc3Cl)C2)C1=O` (stereo not shown) [Compound 91, 2-(2-chlorophenyl)-7-(2-fluoro-4-methoxypyridin-3-yl)-5,7-diazaspiro[3.4]octane-6,8-dione] was tested, and the IC50 was > 50 µM.

Same assay, conditions: percent of control activity at 2500 nM; read-out: % activity at 2500 nM

With `O=C1NC2(CC(c3ccccc3Cl)C2)C(=O)N1c1cnccc1Oc1ccccc1` (stereo not shown) [Compound 82, 2-(2-chlorophenyl)-7-(4-phenoxypyridin-3-yl)-5,7-diazaspiro[3.4]octane-6,8-dione] the activity at […] was 55%.

Target: M^pro (Severe acute respiratory syndrome coronavirus 2 (2019-nCoV) (SARS-CoV-2), UniProt P0DTD1)
Assay: not given
Type: binding
Conditions: steady-state analysis, 25° C.

Going from `CC(C)c1ccncc1N1C(=O)NC2(CC(c3ccccc3Cl)C2)C1=O` (stereo not shown) [Compound 63, 2-(2-chlorophenyl)-7-(4-isopropylpyridin-3-yl)-5,7-diazaspiro[3.4]octane-6,8-dione] to `O=C1NC2(CC(c3ccccc3Cl)C2)C(=O)N1c1cncc2nccnc12` (stereo not shown) [Compound 52, 2-(2-chlorophenyl)-7-(pyrido[3,4-b]pyrazin-8-yl)-5,7-diazaspiro[3.4]octane-6,8-dione], the Kd rises from 0.089 µM to 0.134 µM (1.5-fold).

`O=C1NC2(CC(n3cccn3)C2)C(=O)N1c1cncc2ccccc12` (stereo not shown) [Compound 46, 7-(isoquinolin-4-yl)-2-(1H-pyrazol-1-yl)-5,7-diazaspiro[3.4]octane-6,8-dione] and `O=C1NC2(CC(c3ccccc3Cl)C2)C(=O)N1c1cncnc1` (stereo not shown) [Compound 66, 2-(2-chlorophenyl)-7-(pyrimidin-5-yl)-5,7-diazaspiro[3.4]octane-6,8-dione] are within 1.5-fold of each other in Kd: 0.93 µM for the first, 0.691 µM for the second.

`CN(C)c1cncc(N2C(=O)NC3(CC(c4ccccc4Cl)C3)C2=O)c1` (stereo not shown) [Compound 65, 2-(2-chlorophenyl)-7-(5-(dimethylamino)pyridin-3-yl)-5,7-diazaspiro[3.4]octane-6,8-dione] gave a Kd of 0.79 µM.
